Patent publication US6479525B2, “Aspartate derivative of amlodipine” (Synthon BV, priority 2000, dated 2002)

Tested on: isolated heart tissue
Test: reduction of calcium-induced contraction of isolated heart tissue in vitro (calcium channel blocking activity)
Details: degree of reduction of contraction of an isolated heart tissue induced by an addition of calcium ions in vitro

CCOC(=O)C1=C(COCCN[C@@H](CC(=O)O)C(=O)O)NC(C)=C(C(=O)OC)C1c1ccccc1Cl (stereo partly shown) [Compound of formula (1), N-(2-{[4-(2-chlorophenyl)-3-(ethoxycarbonyl)-5-(methoxycarbonyl)-6-methyl-1,4-dihydro-2-pyridinyl]methoxy}ethyl)aspartic acid]
calcium channel blocking activity (ability to inhibit the movement of calcium into a cell): has been shown
